{
  "source": "patent US4794169A",
  "about": "“Pentapeptides with cell growth regulatory effects and a process for the preparation thereof” (Bio-Tech A/S, priority 1985, dated 1988)",
  "tested_on": "mouse epidermal mitotic rate",
  "experiment": "Change in mouse epidermal mitotic rate after intraperitoneal injection (Colcemid method)",
  "assay_type": "in vivo",
  "conditions": "mouse epidermis, first three hours after i.p. injection, vs control animals from same cage",
  "experimental": "In the following Table 1 in vivo results (change in mouse epidermal mitotic rate) have been described as example for four different new pentapeptides. The epidermal mitotic rate was measured for the first three hours after intraperitoneal injection of the new pentapeptides. Mitotic rate was determined by means of \"Colcemid\" (Demecolcine). A reduced rate was determined as a percentage in comparison with control animals from the same cage.",
  "note": "Square brackets hold non-standard residues; d marks the D form. Peptide text beside a SMILES is read from it. pGlu = O=C1CC[C@@H](C(=O)O)N1",
  "data": [
    {"compound": "O=C(O)CC[C@H](NC(=O)[C@@H]1CCC(=O)N1)C(=O)N[C@@H](CC(=O)O)C(=O)N[C@@H](CO)C(=O)NCC(=O)O", "note": "[Compound 1, pGlu--Glu--Asp--Ser--Gly] ([pGlu]EDSG-OH)", "values": [
      {"measurement": "Decrease in mitotic rate %", "setting": "10^-11 -10^-14 moles of peptide injected per mouse", "value": "40-44%"}
    ]},
    {"compound": "NC(=O)CC[C@H](NC(=O)[C@@H]1CCC(=O)N1)C(=O)N[C@@H](CC(=O)O)C(=O)N[C@@H](CO)C(=O)NCC(=O)O", "note": "[Compound 2, pGlu--Gln--Asp--Ser--Gly] ([pGlu]QDSG-OH)", "values": [
      {"measurement": "Decrease in mitotic rate %", "setting": "10^-11 moles of peptide injected per mouse", "value": 39, "unit": "%"}
    ]},
    {"compound": "C[C@H](NC(=O)[C@H](CC(=O)O)NC(=O)[C@H](CCC(=O)O)NC(=O)[C@@H]1CCC(=O)N1)C(=O)NCC(=O)O", "note": "[Compound 3, pGlu--Glu--Asp--Ala--Gly] ([pGlu]EDAG-OH)", "values": [
      {"measurement": "Decrease in mitotic rate %", "setting": "10^-13 moles of peptide injected per mouse", "value": 36, "unit": "%"}
    ]}
  ]
}
